Experimental data reported in the supplement of paper PMC10307832.

Key:
Assay in all cases: relative viability (nuclei count vs DMSO), 5 days (fraction); higher = more cells survive
[1] = compound: CCOc1cc2ncc(C#N)c(Nc3ccc(OCc4ccccn4)c(Cl)c3)c2cc1NC(=O)/C=C/CN(C)C [Neratinib] + Cc1nc(Nc2ncc(C(=O)Nc3c(C)cccc3Cl)s2)cc(N2CCN(CCO)CC2)n1 [Dasatinib] (partner 0.075 µM)
Outline: (§1)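 Dosing by pin tool came one day after lung cancer cell lines were seeded in 1536-well plates, using either one drug or a fixed anchor-drug dose plus five library-drug doses (not always all listed) in √10 steps. After 5 days, nuclei were counted on 4× images. Relative viability is treated-well nuclei count divided by vehicle-well nuclei count, and values are medians of duplicate plates.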

[2] = compound: CCOc1cc2ncc(C#N)c(Nc3ccc(OCc4ccccn4)c(Cl)c3)c2cc1NC(=O)/C=C/CN(C)C [Neratinib] + CC(=O)c1c(C)c2cnc(Nc3ccc(N4CCNCC4)cn3)nc2n(C2CCCC2)c1=O [Palbociclib] (partner 0.5 µM)
Outline: as §1

[3] = compound: CCOc1cc2ncc(C#N)c(Nc3ccc(OCc4ccccn4)c(Cl)c3)c2cc1NC(=O)/C=C/CN(C)C [Neratinib] + CC(C)C[C@H](NC(=O)[C@H](Cc1ccccc1)NC(=O)c1cnccn1)B(O)O [Bortezomib] (partner 0.002 µM)
Outline: as §1

[4] = compound: CCOc1cc2ncc(C#N)c(Nc3ccc(OCc4ccccn4)c(Cl)c3)c2cc1NC(=O)/C=C/CN(C)C [Neratinib] + CCNC(=O)c1noc(-c2cc(C(C)C)c(O)cc2O)c1-c1ccc(CN2CCOCC2)cc1 [Luminespib] (partner 0.01 µM)
Outline: as §1

| Cell Line | relative viability ([1]; first compound 0.01 µM) | relative viability ([1]; first compound 0.03162 µM) | relative viability ([1]; first compound 0.1 µM) | relative viability ([1]; first compound 0.3162 µM) | relative viability ([1]; first compound 1 µM) | relative viability ([2]; first compound 0.01 µM) | relative viability ([2]; first compound 0.03162 µM) | relative viability ([2]; first compound 0.1 µM) | relative viability ([2]; first compound 0.3162 µM) | relative viability ([2]; first compound 1 µM) | relative viability ([3]; first compound 0.01 µM) | relative viability ([3]; first compound 0.03162 µM) | relative viability ([3]; first compound 0.1 µM) | relative viability ([3]; first compound 0.3162 µM) | relative viability ([3]; first compound 1 µM) | relative viability ([4]; first compound 0.01 µM) | relative viability ([4]; first compound 0.03162 µM) | relative viability ([4]; first compound 0.1 µM) | relative viability ([4]; first compound 0.3162 µM) | relative viability ([4]; first compound 1 µM) |
| --- | --- | --- | --- | --- | --- | --- | --- | --- | --- | --- | --- | --- | --- | --- | --- | --- | --- | --- | --- | --- |
| LCLC-103H | 0.551 | 0.5 | 0.415 | 0.375 | 0.346 | 0.517 | 0.478 | 0.457 | 0.474 | 0.46 | 1.18 | 1.1 | 0.905 | 1.16 | 1.1 | 0.921 | 0.981 | 0.883 | 0.93 | 0.647 |
| NCI-H3122 | 0.872 | 0.939 | 0.729 | 0.565 | 0.132 | 0.205 | 0.208 | 0.188 | 0.181 | 0.148 | 1.05 | 1.1 | 0.98 | 1.06 | 0.775 | 0.103 | 0.0884 | 0.119 | 0.102 | 0.11 |
| HCC-15 | 0.655 | 0.676 | 0.555 | 0.644 | 0.517 | 0.764 | 0.828 | 0.738 | 0.692 | 0.511 | 0.948 | 1.16 | 0.932 | 0.956 | 0.882 | 0.347 | 0.377 | 0.274 | 0.339 | 0.161 |
| SW 1573 | 0.455 | 0.519 | 0.455 | 0.495 | 0.322 | 0.382 | 0.422 | 0.428 | 0.289 | 0.217 | 1.07 | 1.28 | 0.998 | 1.08 | 0.843 | 0.235 | 0.196 | 0.333 | 0.188 | 0.132 |
| HARA | 0.303 | 0.312 | 0.196 | 0.155 | 0.148 | 0.24 | 0.275 | 0.237 | 0.195 | 0.227 | 1.26 | 1.15 | 0.97 | 0.974 | 0.79 | 0.685 | 0.743 | 0.662 | 0.271 | 0.117 |
| NCI-H2228 | 0.494 | 0.566 | 0.366 | 0.45 | 0.102 | 0.666 | 0.95 | 0.765 | 0.655 | 0.169 | 1.16 | 1.03 | 1.01 | 0.765 | 0.295 | 0.145 | 0.138 | 0.14 | 0.12 | 0.114 |
| LXF-289 | 0.186 | 0.234 | 0.162 | 0.21 | 0.188 | 0.633 | 0.631 | 0.554 |  | 0.58 | 1.02 | 0.998 | 0.93 | 1.03 | 0.975 | 0.726 | 0.805 |  | 0.695 | 0.453 |
| NCI-H520 | 0.212 | 0.199 | 0.228 | 0.171 | 0.147 | 0.191 | 0.242 |  | 0.213 | 0.183 | 0.468 | 0.788 | 0.448 | 0.426 | 0.31 | 0.244 | 0.207 | 0.231 | 0.214 | 0.228 |
| NCI-H2023 | 0.576 | 0.562 | 0.473 | 0.479 | 0.42 | 0.395 | 0.363 | 0.308 | 0.322 | 0.348 | 1.08 | 1.08 | 0.802 | 0.995 | 0.69 | 0.999 | 0.871 | 0.579 | 0.709 | 0.579 |
